Laboratory results published in the NIST ThermoML archive (doi:10.1016/j.jct.2019.03.023).

Assay: molar heat capacity at constant volume
Details: Fluid (supercritical or subcritical phases), Vacuum adiabatic calorimetry

CC(C)O [propan-2-ol]
Details | molar heat capacity at constant volume [J/K/mol]
501.94 K, Mass density=343.1 kg/m3 | 317.72
502.03 K, Mass density=266.3 kg/m3 | 345.37
502.04 K, Mass density=343.1 kg/m3 | 315.2
502.13 K, Mass density=266.3 kg/m3 | 347.59
502.13 K, Mass density=343.1 kg/m3 | 309.67
502.22 K, Mass density=266.3 kg/m3 | 350.23
502.22 K, Mass density=343.1 kg/m3 | 314.54
502.31 K, Mass density=266.3 kg/m3 | 348.13
502.32 K, Mass density=343.1 kg/m3 | 312.25
502.41 K, Mass density=266.3 kg/m3 | 351.2
502.41 K, Mass density=343.1 kg/m3 | 317.66
502.5 K, Mass density=266.3 kg/m3 | 350.29
502.5 K, Mass density=343.1 kg/m3 | 312.07
502.6 K, Mass density=266.3 kg/m3 | 350.29
502.6 K, Mass density=343.1 kg/m3 | 310.39
503.92 K, Mass density=329.2 kg/m3 | 322.05
504.02 K, Mass density=329.2 kg/m3 | 325.72
504.11 K, Mass density=329.2 kg/m3 | 323.31
504.3 K, Mass density=329.2 kg/m3 | 318.86
504.37 K, Mass density=281.9 kg/m3 | 348.13
504.46 K, Mass density=281.9 kg/m3 | 351.02
504.5 K, Mass density=329.2 kg/m3 | 325.72
504.56 K, Mass density=234.3 kg/m3 | 386.83
504.56 K, Mass density=281.9 kg/m3 | 346.57
504.59 K, Mass density=329.2 kg/m3 | 319.65
504.65 K, Mass density=234.3 kg/m3 | 381.48
504.65 K, Mass density=281.9 kg/m3 | 351.08
504.74 K, Mass density=234.3 kg/m3 | 386.35
504.74 K, Mass density=281.9 kg/m3 | 346.63
504.84 K, Mass density=234.3 kg/m3 | 392.36
504.84 K, Mass density=281.9 kg/m3 | 355.64
504.93 K, Mass density=281.9 kg/m3 | 355.64
504.97 K, Mass density=234.3 kg/m3 | 391.52
504.98 K, Mass density=329.2 kg/m3 | 328.36
505.02 K, Mass density=281.9 kg/m3 | 349.27
505.08 K, Mass density=329.2 kg/m3 | 326.92
505.12 K, Mass density=234.3 kg/m3 | 387.07
505.12 K, Mass density=281.9 kg/m3 | 354.2
505.21 K, Mass density=234.3 kg/m3 | 382.87
505.21 K, Mass density=281.9 kg/m3 | 355.76
505.21 K, Mass density=324.5 kg/m3 | 333.29
505.27 K, Mass density=329.2 kg/m3 | 325.96
505.3 K, Mass density=234.3 kg/m3 | 387.13
505.3 K, Mass density=324.5 kg/m3 | 339.78
505.37 K, Mass density=329.2 kg/m3 | 325.35
505.4 K, Mass density=234.3 kg/m3 | 387.13
505.49 K, Mass density=288.99 kg/m3 | 349.87
505.58 K, Mass density=288.99 kg/m3 | 350.77
505.58 K, Mass density=324.5 kg/m3 | 333.05
505.68 K, Mass density=288.99 kg/m3 | 343.14
505.68 K, Mass density=324.5 kg/m3 | 338.82
505.77 K, Mass density=288.99 kg/m3 | 350.47
505.77 K, Mass density=324.5 kg/m3 | 335.27
505.77 K, Mass density=343.1 kg/m3 | 323.67
505.86 K, Mass density=288.99 kg/m3 | 346.63
505.86 K, Mass density=324.5 kg/m3 | 337.13
505.86 K, Mass density=343.1 kg/m3 | 325.29
505.96 K, Mass density=288.99 kg/m3 | 350.53
505.96 K, Mass density=324.5 kg/m3 | 332.09
505.96 K, Mass density=343.1 kg/m3 | 323.97
506.05 K, Mass density=288.99 kg/m3 | 354.32
506.05 K, Mass density=324.5 kg/m3 | 336.65
506.05 K, Mass density=343.1 kg/m3 | 326.26
506.14 K, Mass density=288.99 kg/m3 | 350.59
506.14 K, Mass density=324.5 kg/m3 | 342.42
506.14 K, Mass density=343.1 kg/m3 | 328.36
506.24 K, Mass density=288.99 kg/m3 | 350.65
506.24 K, Mass density=324.5 kg/m3 | 340.02
506.24 K, Mass density=343.1 kg/m3 | 327.04
506.33 K, Mass density=274 kg/m3 | 361.17
506.33 K, Mass density=288.99 kg/m3 | 346.33
506.33 K, Mass density=324.5 kg/m3 | 336.41
506.33 K, Mass density=343.1 kg/m3 | 326.44
506.42 K, Mass density=274 kg/m3 | 362.97
506.42 K, Mass density=343.1 kg/m3 | 329.92
506.43 K, Mass density=329.2 kg/m3 | 328.06
506.52 K, Mass density=274 kg/m3 | 361.05
506.52 K, Mass density=288.99 kg/m3 | 351.92
506.52 K, Mass density=324.5 kg/m3 | 341.04
506.52 K, Mass density=343.1 kg/m3 | 328.3
506.53 K, Mass density=329.2 kg/m3 | 330.64
506.61 K, Mass density=274 kg/m3 | 365.62
506.61 K, Mass density=288.99 kg/m3 | 355.52
506.61 K, Mass density=343.1 kg/m3 | 329.98
506.62 K, Mass density=329.2 kg/m3 | 335.93
506.7 K, Mass density=288.99 kg/m3 | 357.63
506.7 K, Mass density=324.5 kg/m3 | 343.74
506.72 K, Mass density=329.2 kg/m3 | 332.69
506.8 K, Mass density=288.99 kg/m3 | 349.21
506.8 K, Mass density=343.1 kg/m3 | 329.08
506.82 K, Mass density=329.2 kg/m3 | 332.27
506.89 K, Mass density=288.99 kg/m3 | 354.98
